This note sets out measurements from ChEMBL document CHEMBL2346609, “Synthesis, characterization and Akt phosphorylation inhibitory activity of cyclopentanecarboxylate-substituted alkylphosphocholines” (Bioorg Med Chem, 2013).

The structures appear in SMILES notation.

A short description of assay [1]: Cytotoxicity against human KATO III cells by flow cytometric analysis. Format: functional, cell-based, KATO III cell.
Assay [2] deals with MCF7. In words: Cytotoxicity against human MCF7 cells by flow cytometric analysis. Format: functional, cell-based.
Assay [3] deals with RAC-alpha serine/threonine-protein kinase (Homo sapiens, UniProt P31749). In words: Inhibition of Akt phosphorylation in human insulin-stimulated A549 cells incubated for 2 hrs prior to insulin-induction measured after 30 mins by ELISA. Format: cell-based. Background: ELISA stands for enzyme-linked immunosorbent assay.
Chain of RAC-alpha serine/threonine-protein kinase (P31749 whole entry): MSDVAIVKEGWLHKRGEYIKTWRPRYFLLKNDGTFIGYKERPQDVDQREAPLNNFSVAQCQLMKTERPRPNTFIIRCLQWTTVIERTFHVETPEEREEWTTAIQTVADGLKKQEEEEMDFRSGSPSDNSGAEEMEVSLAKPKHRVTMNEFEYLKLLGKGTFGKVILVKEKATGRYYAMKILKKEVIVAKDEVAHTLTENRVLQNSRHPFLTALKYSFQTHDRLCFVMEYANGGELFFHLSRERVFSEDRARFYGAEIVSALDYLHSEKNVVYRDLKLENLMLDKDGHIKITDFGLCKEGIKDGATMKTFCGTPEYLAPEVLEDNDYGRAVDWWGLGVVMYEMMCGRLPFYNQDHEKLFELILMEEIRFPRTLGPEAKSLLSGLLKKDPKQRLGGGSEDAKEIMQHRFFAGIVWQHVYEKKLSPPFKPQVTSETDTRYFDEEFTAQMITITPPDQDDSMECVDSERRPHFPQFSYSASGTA
Assay [4] has as its system A549. In words: Ratio of perifosine IC50 to compound IC50 for human A549 cells. Format: functional.
Assay [5] has as its system A549. In words: Ratio of edelfosine IC50 to compound IC50 for human A549 cells. Format: functional.
Assay [6] relates to A549. In words: Cytotoxicity against human A549 cells by flow cytometric analysis. Format: functional, cell-based. Background: In flow cytometry, cells or beads pass a laser one at a time.
Assay [7] deals with A549. In words: Ratio of miltefosine IC50 to compound IC50 for human A549 cells. Format: functional.

As to `CCCCCCCCCCCCC[C@@]1(C(=O)OCC)CCC[C@H]1OP(=O)([O-])OCC[N+](C)(C)C` (racemic), the IC50 in assay [1] came out at 14.1 µM; in assay [2], 11.2 µM; in assay [3], 3.1 µM; in assay [6], 2 µM. The “Ratio IC50” value in assay [4], in assay [5] and in assay [7] was 4 in each case.

`CCCCCCCCCCCCCCCC[C@@]1(C(=O)OCC)CCC[C@H]1OP(=O)([O-])OCC[N+](C)(C)C` (racemic): the 50% inhibitory concentration (IC50) in assay [1] worked out at 7.9 µM; in assay [2] it was 5.6 µM; in assay [3] it was 2 µM; in assay [6], 1.6 µM. Further, the “Ratio IC50” value in assay [4], in assay [5] and in assay [7] was 4 each time.

With `CCCCCCCCCCCCCCCCCC[C@@]1(C(=O)OCC)CCC[C@H]1OP(=O)([O-])OCC[N+](C)(C)C` (racemic), the half-maximal inhibitory concentration (IC50) in assay [1] came out at 15 µM; in assay [2] it was 13.1 µM; in assay [3] it was 10.9 µM; in assay [6], 6.2 µM.

On to `CCCCCCCCCCCCCCCCCCCC[C@@]1(C(=O)OCC)CCC[C@H]1OP(=O)([O-])OCC[N+](C)(C)C` (racemic), for which the IC50 in assay [1] turned out to be 11.1 µM; in assay [2] it was 9.7 µM; in assay [3] it was 7 µM; in assay [6], 13.6 µM.

With `CCCCCCCCCCCCCCCCCCCCCC[C@@]1(C(=O)OCC)CCC[C@H]1OP(=O)([O-])OCC[N+](C)(C)C` (racemic), the IC50 was 10.4 µM in assay [1], 16.8 µM in assay [2], 5.5 µM in assay [3] and 6.9 µM in assay [6].

With `CCCCCCCCCCCCC[C@@]1(C(=O)OCC)CCC[C@@H]1OP(=O)([O-])OCC[N+](C)(C)C` (racemic), the IC50 turned out to be 9.7 µM in assay [1], 4.5 µM in assay [2], 6.2 µM in assay [3] and 2.7 µM in assay [6].

Consider `CCCCCCCCCCCCCCCC[C@@]1(C(=O)OCC)CCC[C@@H]1OP(=O)([O-])OCC[N+](C)(C)C` (racemic), for which the concentration for half-maximal inhibition (IC50) in assay [1] was found to be 10.6 µM; in assay [2] it was 11.1 µM; in assay [3] it was 5 µM; in assay [6] it was 3.6 µM.

With `CCCCCCCCCCCCCCCCCC[C@@]1(C(=O)OCC)CCC[C@@H]1OP(=O)([O-])OCC[N+](C)(C)C` (racemic), the IC50 is 9.9 µM in assay [1], 7.5 µM in assay [2], 3 µM in assay [3] and 4.6 µM in assay [6].

`CCCCCCCCCCCCCCCCCCCC[C@@]1(C(=O)OCC)CCC[C@@H]1OP(=O)([O-])OCC[N+](C)(C)C` (racemic): the IC50 in assay [1] was 10.9 µM; in assay [2] it was 16 µM; in assay [3], 6.9 µM; in assay [6], 7.2 µM.

For the compound `CCCCCCCCCCCCCCCCCCCCCC[C@@]1(C(=O)OCC)CCC[C@@H]1OP(=O)([O-])OCC[N+](C)(C)C` (racemic), the IC50 was 11.4 µM in assay [1], 7.6 µM in assay [2], 19.1 µM in assay [3] and 17.8 µM in assay [6].

In the case of `CCCCCCCCCCCCCCCCCCOCC(COP(=O)([O-])OCC[N+](C)(C)C)OC` (configuration not stated) [EDELFOSINE], the IC50 stood at 12.8 µM in assay [1], 9.3 µM in assay [2], 3.5 µM in assay [3] and 7.4 µM in assay [6].

`CCCCCCCCCCCCCCCCOP(=O)([O-])OCC[N+](C)(C)C` [MILTEFOSINE] returned an IC50 in assay [3] of 9.6 µM.

In turn, `CCCCCCCCCCCCCCCCCCOP(=O)([O-])OC1CC[N+](C)(C)CC1` [PERIFOSINE] returned a concentration for half-maximal inhibition (IC50) in assay [3] of 5.3 µM.

Broadly, the IC50 is the concentration at which inhibition is half-maximal.
